Assay results reported in paper PMC11062899, “De novo development of small cyclic peptides that are orally bioavailable” (Nature Chemical Biology, 2023).
Values joined by “and” are separate entries in the source; they are usually repeats but may differ in a detail not shown here. Identical values can stand only once. Like-named read-outs stand apart in the source and are kept apart here.

Key:
rat α-thrombin = target: T1, rat α-thrombin (Rattus norvegicus, UniProt P18292); experiment: Protease inhibition, Ki for rat α-thrombin (fluorogenic substrate Z-Gly-Gly-Arg-AMC); assay type: biochemical; settings: rat alpha thrombin; for Slope normalized to DMSO (proteolytic substrate cleavage over time): replicates R1-R3
T1 construct: rat α-thrombin (Molecular Innovations) were used at final concentrations of 2 nM and 3 nM; purchased Molecular Innovations
Procedure, shortened: (§1)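 Ki derived through Cheng–Prusoff from IC50s (four-parameter logistic fit) against activity of peptide-free controls. Product fluorescence was read every 3 min over 30 min at 25 °C, substrate Z-Gly-Gly-Arg-AMC at 50 μM. Enzyme was 2 nM human or 3 nM rat α-thrombin, pH 7.4 buffer.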

porcine pepsin = target: T2, porcine pepsin (Sus scrofa, UniProt P00791); experiment: Peptide stability in simulated gastric fluid (SGF); assay type: in vitro ADME
T2 construct: 0.32 g of porcine pepsin (Sigma-Aldrich, P7125) was dissolved under gentle agitation; purchased Sigma-Aldrich P7125
Procedure, shortened: (§2)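 Peptide from a 1 mM DMSO stock was added to fluid pre-warmed at 37 °C. SGF was pH 1.2 NaCl with porcine pepsin (0.32 g per 100 ml), and SIF was pH 6.8 potassium phosphate with porcine pancreatin (1 g per 100 ml). Supernatant peptide was quantified by LC–MS, with residual expressed as T1/T0.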

[1] = Passive artificial membrane permeability (PAMPA)
human α-thrombin = human α-thrombin (Homo sapiens, UniProt P00734); experiment: Protease inhibition, Ki for human α-thrombin (fluorogenic substrate Z-Gly-Gly-Arg-AMC); assay type: biochemical; settings: human alpha thrombin; for Slope normalized to DMSO (proteolytic substrate cleavage over time): replicates R1-R3
Procedure, shortened: as §1

porcine pancreatin = experiment: Peptide stability in simulated intestinal fluid (SIF); assay type: in vitro ADME; set-up: remaining at 8 h: dose or concentration left out as unconfirmed; settings: after 8 h vs 0 h (TIC); single replicates R1-R3
Procedure, shortened: as §2

[2] = as above; assay type: in vitro ADME, porcine; set-up: remaining at 8 h: dose or concentration left out as unconfirmed; settings: pH 6.8
Procedure, shortened: as §2

T2 sequence (P00791 60-385): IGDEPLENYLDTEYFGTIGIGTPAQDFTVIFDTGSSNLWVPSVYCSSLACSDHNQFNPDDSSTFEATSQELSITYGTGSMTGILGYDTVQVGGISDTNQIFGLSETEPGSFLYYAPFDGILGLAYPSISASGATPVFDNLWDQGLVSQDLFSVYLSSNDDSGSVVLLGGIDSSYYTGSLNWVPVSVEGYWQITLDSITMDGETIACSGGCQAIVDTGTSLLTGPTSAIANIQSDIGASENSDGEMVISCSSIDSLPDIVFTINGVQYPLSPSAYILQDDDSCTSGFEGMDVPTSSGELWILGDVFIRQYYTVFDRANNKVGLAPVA

- Ki (rat α-thrombin; average of R1-R3, read-out: Ki Average, rat alpha thrombin inhibition): 0.0184 µM
- Slope normalized to DMSO (proteolytic substrate cleavage over time) (rat α-thrombin; peptide 1.02E-03 uM): 95.3 and 93.5 and 90.4
- Slope normalized to DMSO (proteolytic substrate cleavage over time) (rat α-thrombin; peptide 1.04E+00 uM): 8.6 and 8.7 and 5.7
- Slope normalized to DMSO (proteolytic substrate cleavage over time) (rat α-thrombin; peptide 1.27E-04 uM): 96.6 and 98.1 and 94.9
- Slope normalized to DMSO (proteolytic substrate cleavage over time) (rat α-thrombin; peptide 1.30E-01 uM): 29.1 and 30.9 and 27.9
- Slope normalized to DMSO (proteolytic substrate cleavage over time) (rat α-thrombin; peptide 1.59E-05 uM): 99.9 and 100.8 and 98.0
- Slope normalized to DMSO (proteolytic substrate cleavage over time) (rat α-thrombin; peptide 1.63E-02 uM): 66.4 and 67.5 and 64.5
- Slope normalized to DMSO (proteolytic substrate cleavage over time) (rat α-thrombin; peptide 1.67E+01 uM): 5.5 and 6.4 and 3.4
- Slope normalized to DMSO (proteolytic substrate cleavage over time) (rat α-thrombin; peptide 2.03E-03 uM): 85.0 and 86.2 and 80.9
- Slope normalized to DMSO (proteolytic substrate cleavage over time) (rat α-thrombin; peptide 2.08E+00 uM): 8.2 and 8.0 and 6.0
- Slope normalized to DMSO (proteolytic substrate cleavage over time) (rat α-thrombin; peptide 2.54E-04 uM): 94.8 and 90.7 and 91.8
- Slope normalized to DMSO (proteolytic substrate cleavage over time) (rat α-thrombin; peptide 2.60E-01 uM): 20.1 and 21.2 and 15.6
- Slope normalized to DMSO (proteolytic substrate cleavage over time) (rat α-thrombin; peptide 3.18E-05 uM): 99.5 and 101.3 and 96.2
- Slope normalized to DMSO (proteolytic substrate cleavage over time) (rat α-thrombin; peptide 3.26E-02 uM): 58.6 and 59.5 and 55.9
- Slope normalized to DMSO (proteolytic substrate cleavage over time) (rat α-thrombin; peptide 3.33E+01 uM): 4.9 and 6.5 and 3.7
- Slope normalized to DMSO (proteolytic substrate cleavage over time) (rat α-thrombin; peptide 4.07E-03 uM): 77.2 and 73.8 and 74.9
- Slope normalized to DMSO (proteolytic substrate cleavage over time) (rat α-thrombin; peptide 4.17E+00 uM): 6.8 (2×) and -8.2
- Slope normalized to DMSO (proteolytic substrate cleavage over time) (rat α-thrombin; peptide 5.09E-04 uM): 92.2 and 90.6 and 87.0
- Slope normalized to DMSO (proteolytic substrate cleavage over time) (rat α-thrombin; peptide 5.21E-01 uM): 12.0 and 12.9 and 10.7
- Slope normalized to DMSO (proteolytic substrate cleavage over time) (rat α-thrombin; peptide 6.36E-05 uM): 97.8 and 99.0 and 94.4
- Slope normalized to DMSO (proteolytic substrate cleavage over time) (rat α-thrombin; peptide 6.51E-02 uM): 36.9 and 38.0 and 37.1
- Slope normalized to DMSO (proteolytic substrate cleavage over time) (rat α-thrombin; peptide 6.67E+01 uM): 5.7 and 6.9 and 3.2
- Slope normalized to DMSO (proteolytic substrate cleavage over time) (rat α-thrombin; peptide 7.95E-06 uM): 102.6 and 104.4 and 98.4
- Slope normalized to DMSO (proteolytic substrate cleavage over time) (rat α-thrombin; peptide 8.14E-03 uM): 67.4 and 67.8 and 64.3
- Slope normalized to DMSO (proteolytic substrate cleavage over time) (rat α-thrombin; peptide 8.33E+00 uM): 6.5 and 6.4 and -9.8
- IC50 (rat α-thrombin; single replicates R1-R3, read-out: IC50, rat alpha thrombin inhibition): 0.0311 µM and 0.0307 µM and 0.0378 µM
- SGF stability, Residual peptide Average (porcine pepsin; after 8 h vs 0 h (TIC), average of R1-R3): 98.71
- SGF stability, Residual peptide (porcine pepsin; after 8 h vs 0 h (TIC), single replicates R1-R3): 102.19 and 96.66 and 97.27
- remaining at 8 h (porcine pepsin; simulated gi fluid, 8 h, 37 °C, pH 1.2, read-out: Proteolytic stability: SGF (8 h) % remaining): 99 ± 3%
- PAMPA permeability: % permeability ([1]; 50 μM, 12–18 h, acceptor concentration relative to equilibrium): 21 ± 8%
- Papp at 50 μM ([1]; PAMPA, pH 7.4): 2.24 ×10⁻⁶ cm/s
- Permeability% Average ([1]; top well sample vs theoretical equilibrium sample (TIC), average of R1-R3): 21.1%
- Permeability% ([1]; top well sample vs theoretical equilibrium sample (TIC), single replicates R1-R3): 16.62% and 15.98% and 30.80%
- Ki (human α-thrombin; average of R1-R3, read-out: Ki Average, human alpha thrombin inhibition): 0.0628 µM
- Slope normalized to DMSO (proteolytic substrate cleavage over time) (human α-thrombin; peptide 1.02E-03 uM): 93.6 and 100.9 and 97.6
- Slope normalized to DMSO (proteolytic substrate cleavage over time) (human α-thrombin; peptide 1.04E+00 uM): 8.6 and 16.9 and 12.9
- Slope normalized to DMSO (proteolytic substrate cleavage over time) (human α-thrombin; peptide 1.27E-04 uM): 93.4 and 102.6 and 100.9
- Slope normalized to DMSO (proteolytic substrate cleavage over time) (human α-thrombin; peptide 1.30E-01 uM): 39.5 and 49.3 and 44.8
- Slope normalized to DMSO (proteolytic substrate cleavage over time) (human α-thrombin; peptide 1.59E-05 uM): 106.2 and 101.5 and 96.8
- Slope normalized to DMSO (proteolytic substrate cleavage over time) (human α-thrombin; peptide 1.63E-02 uM): 75.0 and 77.8 and 78.6
- Slope normalized to DMSO (proteolytic substrate cleavage over time) (human α-thrombin; peptide 1.67E+01 uM): -7.7 and 7.5 and 5.3
- Slope normalized to DMSO (proteolytic substrate cleavage over time) (human α-thrombin; peptide 2.03E-03 uM): 88.5 and 91.4 and 92.0
- Slope normalized to DMSO (proteolytic substrate cleavage over time) (human α-thrombin; peptide 2.08E+00 uM): 6.1 and 11.4 and 10.4
- Slope normalized to DMSO (proteolytic substrate cleavage over time) (human α-thrombin; peptide 2.54E-04 uM): 95.8 and 99.6 and 97.3
- Slope normalized to DMSO (proteolytic substrate cleavage over time) (human α-thrombin; peptide 2.60E-01 uM): 30.6 and 32.4 and 32.2
- Slope normalized to DMSO (proteolytic substrate cleavage over time) (human α-thrombin; peptide 3.18E-05 uM): 97.7 and 98.2 and 93.3
- Slope normalized to DMSO (proteolytic substrate cleavage over time) (human α-thrombin; peptide 3.26E-02 uM): 69.6 and 73.9 and 66.3
- Slope normalized to DMSO (proteolytic substrate cleavage over time) (human α-thrombin; peptide 3.33E+01 uM): 2.9 and 7.3 and 3.8
- Slope normalized to DMSO (proteolytic substrate cleavage over time) (human α-thrombin; peptide 4.07E-03 uM): 82.9 and 85.6 and 85.5
- Slope normalized to DMSO (proteolytic substrate cleavage over time) (human α-thrombin; peptide 4.17E+00 uM): 2.6 and 6.0 and 6.1
- Slope normalized to DMSO (proteolytic substrate cleavage over time) (human α-thrombin; peptide 5.09E-04 uM): 91.0 and 91.5 and 96.2
- Slope normalized to DMSO (proteolytic substrate cleavage over time) (human α-thrombin; peptide 5.21E-01 uM): 17.9 and 15.7 and 18.4
- Slope normalized to DMSO (proteolytic substrate cleavage over time) (human α-thrombin; peptide 6.36E-05 uM): 96.3 and 98.6 and 101.5
- Slope normalized to DMSO (proteolytic substrate cleavage over time) (human α-thrombin; peptide 6.51E-02 uM): 47.1 and 63.8 and 53.5
- Slope normalized to DMSO (proteolytic substrate cleavage over time) (human α-thrombin; peptide 6.67E+01 uM): 2.7 and 9.5 and 7.0
- Slope normalized to DMSO (proteolytic substrate cleavage over time) (human α-thrombin; peptide 7.95E-06 uM): 96.2 and 102.7 and 103.6
- Slope normalized to DMSO (proteolytic substrate cleavage over time) (human α-thrombin; peptide 8.14E-03 uM): 70.3 and 73.9 and 78.9
- Slope normalized to DMSO (proteolytic substrate cleavage over time) (human α-thrombin; peptide 8.33E+00 uM): 3.3 and 5.4 and 3.6
- IC50 (human α-thrombin; single replicates R1-R3, read-out: IC50, human alpha thrombin inhibition): 0.0778 µM and 0.0894 µM and 0.0772 µM
- SIF stability, Residual peptide (porcine pancreatin): 32.04 and 28.68 and 33.58
- remaining at 8 h ([2]; pig, after 8 h vs 0 h (TIC), average of R1-R3, read-out: SIF stability, Residual peptide Average): 31.4%
- remaining at 8 h ([2]; simulated gi fluid, 8 h, 37 °C, read-out: Proteolytic stability: SIF (8 h) % remaining): 31 ± 3%
Compound: O=C1C[C@H]2CCCN2C(=O)[C@H](Cc2ccccc2)NC(=O)[C@@H](NC(=O)c2ccc(Cl)s2)CCCSCc2cccc(n2)CSCCN1 [compound 35]
- Ki (rat α-thrombin; single replicates R1-R3, read-out: Ki, rat alpha thrombin inhibition): 17.2 nM (2×) and 17 nM (2×) and 20.9 nM (2×)
- Ki (human α-thrombin; single replicates R1-R3, read-out: Ki, human alpha thrombin inhibition): 59.9 nM (2×) and 68.9 nM (2×) and 59.5 nM (2×)
